In PMC10945559, “Forgotten Natural Products: Semisynthetic Development of Blasticidin S As an Antibiotic Lead” (ACS Medicinal Chemistry Letters, 2024):
≈ marks a conversion by molar mass, not a printed value. Like-named read-outs stand apart in the source and are kept apart here.

Key:
[1] = test system: methicillin-resistant S. aureus (MRSA) ATCC 43300; assay: Broth microdilution antibacterial assay; assay type: cell-based, Staphylococcus aureus; conditions: for Selectivity index (CC50/IC50): MRC-5 CC50 / MRSA IC50; for IC50 / MIC: Staphylococcus aureus
Procedure: (§1) Antibacterial Assay Procedure
(§2) Broth Microdilution Assays
(§3) Media and solutions were autoclaved or sterile filtered prior to use and manipulations were carried out in a laminar flow hood. Antibacterial testing was performed in polypropylene 96 -well flat bottom plates. The minimal inhibitory concentration of blasticidin S ( 1) hydrochloride, P10 (2), and derivatives 15–22 were assessed against Staphylococcus aureus ΔNorA, S. aureus 8810, methicillin-resistant S. aureus (MRSA) ATCC 43300, Enterococcus faecalis ATCC 29212, vancomycin-resistant Enterococcus, Klebsiella pneumoniae ATCC 29665, Pseudomonas aeruginosa, and Acinetobacter baumannii ATCC 17978 using serial dilutions. Doxycycline (Gold Bio) as a positive control and the vehicle as a negative control. Stock solutions of each compound were prepared at 5.12 mg/mL in 50% DMSO/water and serially diluted in 50% DMSO/water to create master plates. From the master plates, 10 μL of each dilution was applied to test plates using a Bravo automated liquid transfer system (Agilent). Bacteria previously grown overnight (37 °C, 120 – 200 RPM), in LB broth were diluted to an OD600 of 0.0 5 in cation-adjusted Mueller-Hinton broth, grown to an OD600 of ~0.5, and diluted to an OD600 of 0.004 in cation-adjusted Mueller-Hinton broth. These diluted cultures were applied to the test plates (190 μL per test well) resulting in final concentrations of the test compounds of 256–2 μg/mL. Growth controls (wells with inoculated media but no vehicle or test compounds) were included to assess any potential toxicity from the vehicle. The plates were incubated at 37 °C for 16–18 h, except for VRE and E. faecalis, which were incubated at 37 °C for 24 h. Inhibition was determined by measuring the optical density at 600 nm (OD600) with a Cytation 3 plate reader (BioTek). The optical density measurements were normalized to the positive and negative controls and the vehicle and growth controls were compared and found to be indistinguishable, indicating no toxicity from the vehicle used. The MIC was the lowest concentration that inhibited >90% of growth. Two biological replicates were performed in duplicate. MIC values are reported […]
(§4) as a range from biological replicates. Inhibition curves were generated using Prism (GraphPad).
(§5) The IC50 values reported in Table 2 are the average of the two biological replicates ± standard […]
(§6) Cytotoxicity Assay Procedure
(§7) Human lung fibroblast cells, MRC -5 (CCL-171), were cultured at 37℃ with 5% CO2 and were plated at 5000 cells/well in a 96 -well plate. Compounds 1, 2, and 15-22 were initially prepared at concentrations of 5.12 mg/mL in a vehicle of 50% DMSO. Dilutions of the compounds (4 – 512 μg/mL) were then prepared in growth medium containing Dulbecco’s modified Eagle’s medium (DMEM) with high glucose, L -glutamine, and sodium pyruvate supplemented with 10% fetal bovine serum (FBS), 1% non -essential amino acids, and 0.1% gentamicin sulfate, and 25mM HEPES. The vehicle (50% DMSO) was also prepared via the sa me dilution series to serve as a control. Growth media was removed from the cells and replaced with the same volume of each compound dilution. Cells were incubated for 24 h , after which CellTiter 96® AQueous One Solution Reagent was added to each well as recommended by the manufacturer’s protocol (Promega CellTiter 96 AQueous One Solution Cell Proliferation Assay) and further incubated for 4 h. After incubation, absorbance was measured at 490 nm on an Infinite M plex multimode microplate reader with i -control Tecan software. Viability was calculated by subtracting media only absorbance values and normalizing to the vehicle control at each concentration. The presented data is one assay performed in triplicate that is representative of multiple trials. Data for the 256 and 512 μg/mL concentrations were removed from analysis due to vehicle toxicity […]
(§8) CC50 concentrations were determined via the ED50 Plus v1.0 software (https://archive.org/details/ed50v10_zip).

S. aureus 8810 = assay: Broth microdilution antibacterial assay; assay type: cell-based, Staphylococcus aureus; conditions: for Selectivity index (CC50/IC50): MRC-5 CC50 / S. aureus IC50
Procedure: as §1, §2, §3, §4, §5, §6, §7, §8

[2] = test system: MRC-5 lung fibroblast cells; assay: in vitro; assay type: cell-based, human; conditions: average of SI (CC50/IC50) over the bacteria tested
Procedure: as §4, §5, §6, §7, §8
(§9) Figure S41. The effect of compounds on cell viability. The lines represent non -linear regression curves, and error bars represent means ± […]
(§10) SD (n=3). […]

in vitro = assay type: cell-based, human; conditions: human; MRC-5 (lung fibroblast); 24 h; one biological replicate (n = 3); read-out: CC50 for human cells
Procedure: as §4, §5, §6, §7, §8, §9, §10

[3] = test system: Klebsiella pneumoniae ATCC 29665; assay: Broth microdilution antibacterial assay; assay type: cell-based; conditions: for IC50 / MIC: Klebsiella pneumoniae, ATCC29665; for Selectivity index (CC50/IC50): MRC-5 CC50 / K. pneumoniae IC50
Procedure: as §1, §2, §3, §4, §5, §6, §7, §8

[4] = test system: vancomycin-resistant Enterococcus (VRE); assay: Broth microdilution antibacterial assay; assay type: cell-based; conditions: for MIC / IC50: Enterococcus, VRE; for Selectivity index (CC50/IC50): MRC-5 CC50 / VRE IC50
Procedure: as §1, §2, §3, §4, §5, §6, §7, §8

[5] = test system: Acinetobacter baumannii ATCC 17978; assay: Broth microdilution antibacterial assay; assay type: cell-based; conditions: for IC50 / MIC: Acinetobacter baumannii, ATCC17978; for Selectivity index (CC50/IC50): MRC-5 CC50 / A. baumannii IC50
Procedure: as §1, §2, §3, §4, §5, §6, §7, §8

[6] = test system: Staphylococcus aureus ΔNorA; assay: Broth microdilution antibacterial assay; assay type: cell-based; conditions: for Selectivity index (CC50/IC50): MRC-5 CC50 / S. aureus ΔNorA IC50; for IC50 / MIC: Staphylococcus aureus
Procedure: as §1, §2, §3, §4, §5, §6, §7, §8

[7] = test system: Enterococcus faecalis ATCC 29212; assay: Broth microdilution antibacterial assay; assay type: cell-based; conditions: for MIC / IC50: Enterococcus faecalis; for Selectivity index (CC50/IC50): MRC-5 CC50 / E. faecalis IC50
Procedure: as §1, §2, §3, §4, §5, §6, §7, §8

Pseudomonas aeruginosa = assay: Broth microdilution antibacterial assay; assay type: cell-based; conditions: for Selectivity index (CC50/IC50): MRC-5 CC50 / P. aeruginosa IC50; for IC50 / MIC: Pseudomonas aeruginosa
Procedure: as §1, §2, §3, §4, §5, §6, §7, §8

[8] = MRSA, average of two biological replicates ± S.D., read-out: IC50
[9] = MRSA, lowest concentration inhibiting >90% of growth, range from biological replicates, read-out: MIC
[10] = average MIC, Table S3, read-out: Average Activity against MRSA
[11] = Staphylococcus aureus, 8810, S. aureus, average of two biological replicates ± S.D., read-out: IC50
[12] = Staphylococcus aureus, 8810, S. aureus, lowest concentration inhibiting >90% of growth, range from biological replicates, read-out: MIC
[13] = Staphylococcus aureus, 8810, average MIC, Table S3, read-out: Average Activity against S. aureus
[14] = K. pneumoniae, average of two biological replicates ± S.D., read-out: IC50
[15] = K. pneumoniae, lowest concentration inhibiting >90% of growth, range from biological replicates, read-out: MIC
[16] = average MIC, Table S3, read-out: Average Activity against VRE
[17] = 24 h, lowest concentration inhibiting >90% of growth, range from biological replicates, read-out: MIC
[18] = average of two biological replicates ± S.D., read-out: IC50
[19] = A. baumannii, average of two biological replicates ± S.D., read-out: IC50
[20] = A. baumannii, lowest concentration inhibiting >90% of growth, range from biological replicates, read-out: MIC
[21] = ATCC29212, E. faecalis, 24 h, lowest concentration inhibiting >90% of growth, range from biological replicates, read-out: MIC
[22] = ATCC29212, E. faecalis, average of two biological replicates ± S.D. (18: one biological replicate), read-out: IC50
[23] = ATCC29212, average MIC, Table S3, read-out: Average Activity against E. faecalis
[24] = P. aeruginosa, average of two biological replicates ± S.D., read-out: IC50
[25] = P. aeruginosa, lowest concentration inhibiting >90% of growth, range from biological replicates, read-out: MIC

Structure (SMILES) | Selectivity index (CC50/IC50) [1] | IC50 [1, 8] [µg/mL] | MIC [1, 9] [µg/mL] | MIC [1, 10] [µg/mL] | Selectivity index (CC50/IC50) (S. aureus 8810) | IC50 (S. aureus 8810; [11]) [µg/mL] | MIC (S. aureus 8810; [12]) [µg/mL] | MIC (S. aureus 8810; [13]) [µg/mL] | CC50 at 24 h (in vitro) [µg/mL] | IC50 [3, 14] [µg/mL] | MIC [3, 15] [µg/mL] | Selectivity index (CC50/IC50) [3] | MIC [4, 16] [µg/mL] | Selectivity index (CC50/IC50) [4] | Selectivity index (CC50/IC50) [5] | Selectivity index (CC50/IC50) [6] | IC50 [6] [µg/mL] | MIC [6] [µg/mL] | Selectivity index (CC50/IC50) [7] | Selectivity index (CC50/IC50) (Pseudomonas aeruginosa) | further results
CN(CC[C@H](N)CC(=O)N[C@H]1C=C[C@H](n2ccc(N)nc2=O)O[C@@H]1C(N)=O)C(=N)N [Compound 2, P10] | 0.8 | 7 ± 1 (≈ 16.6 µM) | 32 (≈ 75.9 µM) | 32 (≈ 75.9 µM) | 1.3 | 4.7 ± 1 (≈ 11.2 µM) | 32 (≈ 75.9 µM) | 32 (≈ 75.9 µM) | 5.9 (≈ 14 µM) | 7.6 ± 1.3 (≈ 18 µM) | 32 (≈ 75.9 µM) | 0.8 | 64 (≈ 152 µM) | 0.4 | 1.3 | 0.4 | 14 ± 0.3 (≈ 33.2 µM) | 64 to 128 (≈ 152 to 304 µM) | 1.2 | 0.4 | average selectivity index [2]: 0.8; MIC [4, 17]: 64 µg/mL (≈ 152 µM); IC50 [4, 18]: 15 ± 8.6 µg/mL (≈ 35.6 µM); IC50 [5, 19]: 4.5 ± 0.4 µg/mL (≈ 10.7 µM); MIC [5, 20]: 16 µg/mL (≈ 38 µM); MIC [7, 21]: 16 to 32 µg/mL (≈ 38 to 75.9 µM); IC50 [7, 22]: 5.1 ± 4.3 µg/mL (≈ 12.1 µM); MIC [7, 23]: 16 µg/mL (≈ 38 µM); IC50 (Pseudomonas aeruginosa; [24]): 14.6 ± 1.5 µg/mL (≈ 34.6 µM); MIC (Pseudomonas aeruginosa; [25]): 64 µg/mL (≈ 152 µM)
C#CCCNC(=O)[C@H]1O[C@@H](n2ccc(N)nc2=O)C=C[C@@H]1NC(=O)C[C@@H](N)CCN(C)C(=N)N [Compound 20] | 9.1 | 7.2 ± 2.3 (≈ 15.2 µM) | 32 (≈ 67.6 µM) | 32 (≈ 67.6 µM) | 26 | 2.5 ± 0.2 (≈ 5.28 µM) | 16 (≈ 33.8 µM) | 16 (≈ 33.8 µM) | 65.9 (≈ 139 µM) | 30.7 ± 5.3 (≈ 64.8 µM) | 128 (≈ 270 µM) | 2.2 | 64 (≈ 135 µM) | 3.0 | 2.7 | 4.3 | 15.2 ± 2.1 (≈ 32.1 µM) | 64 (≈ 135 µM) | 5.9 | 3.3 | MIC [4, 17]: 64 µg/mL (≈ 135 µM); IC50 [4, 18]: 22.1 ± 12 µg/mL (≈ 46.7 µM); IC50 [5, 19]: 24.3 ± 3.2 µg/mL (≈ 51.3 µM); MIC [5, 20]: 128 µg/mL (≈ 270 µM); MIC [7, 21]: 16 to 32 µg/mL (≈ 33.8 to 67.6 µM); IC50 [7, 22]: 11.1 ± 4.1 µg/mL (≈ 23.4 µM); MIC [7, 23]: 16 µg/mL (≈ 33.8 µM); IC50 (Pseudomonas aeruginosa; [24]): 20.2 ± 1.3 µg/mL (≈ 42.7 µM); MIC (Pseudomonas aeruginosa; [25]): 64 µg/mL (≈ 135 µM)
CCCNC(=O)[C@H]1O[C@@H](n2ccc(N)nc2=O)C=C[C@@H]1NC(=O)C[C@@H](N)CCN(C)C(=N)N [Compound 17] | 8.1 | – | – | – | 16 | – | – | – | 61.1 (≈ 132 µM) | – | – | 1.4 | – | 3.6 | 1.6 | 3.9 | 15.8 ± 1.1 (≈ 34.1 µM) | 64 to 128 (≈ 138 to 276 µM) | 6.6 | 3.2 | IC50 [1]: 7.6 ± 0.8 µg/mL (≈ 16.4 µM); MIC [1]: 16 to 32 µg/mL (≈ 34.5 to 69 µM); MIC ([1]; read-out: Average Activity against MRSA): 24 µg/mL (≈ 51.8 µM); IC50 (S. aureus 8810; Staphylococcus aureus, 8810): 3.9 ± 0.1 µg/mL (≈ 8.41 µM); MIC (S. aureus 8810; Staphylococcus aureus, 8810): 16 to 32 µg/mL (≈ 34.5 to 69 µM); MIC (S. aureus 8810; Staphylococcus aureus, 8810, read-out: Average Activity against S. aureus): 24 µg/mL (≈ 51.8 µM); IC50 [3]: 44.9 ± 3.2 µg/mL (≈ 96.9 µM); MIC [3]: 128 to 256 µg/mL (≈ 276 to 552 µM); IC50 [4]: 16.8 ± 3.1 µg/mL (≈ 36.2 µM); MIC ([4]; 24 h): 64 µg/mL (≈ 138 µM); MIC ([4]; read-out: Average Activity against VRE): 64 µg/mL (≈ 138 µM); IC50 [5]: 39.3 ± 1.9 µg/mL (≈ 84.8 µM); MIC [5]: > 256 µg/mL; IC50 ([7]; ATCC29212): 9.3 ± 1.7 µg/mL (≈ 20.1 µM); MIC ([7]; ATCC29212, 24 h): 16 to 32 µg/mL (≈ 34.5 to 69 µM); MIC ([7]; ATCC29212, read-out: Average Activity against E. faecalis): 16 µg/mL (≈ 34.5 µM); IC50 (Pseudomonas aeruginosa): 19.3 ± 1.6 µg/mL (≈ 41.6 µM); MIC (Pseudomonas aeruginosa): 64 µg/mL (≈ 138 µM)
